This passage reports IC50 results from patent publication US9382228B2 (priority 2013, dated 2016).

The test system of one assay is osteoclast precursors. The assay can be described thus: cells. Format: cell-based. Particulars: read-out: Osteoclast assay.
Another assay has as its system M-NFS-60 cells. In words: cells. The settings on record: 67 h, read-out: M-NFS-60 cell proliferation.
Assay [1] deals with phospho-FMS in THP-1 cells. The assay can be described thus: cells. Particulars: Homo sapiens, THP-1, read-out: pFMS inhibition in THP-1 cells.
Method: In a separate 96 well black clear bottom plate, one hundred and fifty thousand THP-1 cells were added per well in 100 μL in assay medium. Fifty microliters of diluted compound was then added to the cells. […] Lysates were prepared and used to perform the phospho-FMS ELISA as described by the manufacturer (catalog #DYC3268, R & D Systems, Minneapolis, Minn.). GraphPad Prism was used to calculate IC50 values obtained from data generated from the ELISA assay.
Assay [2] has as its target T1, unphosphorylated c-FMS kinase (uFMS, Seq. ID no. 1) (Homo sapiens, UniProt P07333).
T1 sequence (P07333 538-972): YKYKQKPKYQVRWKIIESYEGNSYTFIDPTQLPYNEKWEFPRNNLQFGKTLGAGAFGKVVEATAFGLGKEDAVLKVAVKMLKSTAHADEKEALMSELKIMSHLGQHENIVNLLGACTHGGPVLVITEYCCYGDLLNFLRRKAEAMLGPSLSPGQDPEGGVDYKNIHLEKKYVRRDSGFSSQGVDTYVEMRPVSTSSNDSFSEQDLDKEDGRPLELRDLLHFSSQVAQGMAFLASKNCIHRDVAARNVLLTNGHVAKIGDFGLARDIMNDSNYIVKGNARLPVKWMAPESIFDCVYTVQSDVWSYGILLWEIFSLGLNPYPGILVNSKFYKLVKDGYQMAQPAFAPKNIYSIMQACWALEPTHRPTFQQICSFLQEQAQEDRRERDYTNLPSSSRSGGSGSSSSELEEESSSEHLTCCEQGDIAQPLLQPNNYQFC
The assay can be described thus: biochemical. Particulars: uFMS, enzymatic assay, ATP 500 μM.

The target of assay [3] is unphosphorylated PDGFRβ kinase (uPDGFRβ, Seq. ID No. 3) (Homo sapiens, UniProt P09619). In words: biochemical.
The target of assay [4] is unphosphorylated c-KIT kinase (uKIT, Seq. ID no. 2) (Homo sapiens, UniProt P10721). In words: biochemical.
Method: uKit kinase (Seq. ID No. 2) Assay
In this assay, the oxidation of NADH (thus the decrease at A340 nm) was continuously monitored spectrophometrically. […] The inhibition reaction was started by mixing serial diluted test compound with the above reaction mixture. The absorption at 340 nm was monitored continuously for 4 hours at 30° C. on Synergy 2 plate reader (BioTech).
The mark [5] stands for this setting: uPDGFRb, enzymatic assay, ATP 500 μM.
Where [6] appears, read: uKIT, enzymatic assay, ATP 2000 μM.

Structures are written as SMILES.

Chain of unphosphorylated c-KIT kinase (uKIT, Seq. ID no. 2) (P10721 with tags, fused parts or gaps): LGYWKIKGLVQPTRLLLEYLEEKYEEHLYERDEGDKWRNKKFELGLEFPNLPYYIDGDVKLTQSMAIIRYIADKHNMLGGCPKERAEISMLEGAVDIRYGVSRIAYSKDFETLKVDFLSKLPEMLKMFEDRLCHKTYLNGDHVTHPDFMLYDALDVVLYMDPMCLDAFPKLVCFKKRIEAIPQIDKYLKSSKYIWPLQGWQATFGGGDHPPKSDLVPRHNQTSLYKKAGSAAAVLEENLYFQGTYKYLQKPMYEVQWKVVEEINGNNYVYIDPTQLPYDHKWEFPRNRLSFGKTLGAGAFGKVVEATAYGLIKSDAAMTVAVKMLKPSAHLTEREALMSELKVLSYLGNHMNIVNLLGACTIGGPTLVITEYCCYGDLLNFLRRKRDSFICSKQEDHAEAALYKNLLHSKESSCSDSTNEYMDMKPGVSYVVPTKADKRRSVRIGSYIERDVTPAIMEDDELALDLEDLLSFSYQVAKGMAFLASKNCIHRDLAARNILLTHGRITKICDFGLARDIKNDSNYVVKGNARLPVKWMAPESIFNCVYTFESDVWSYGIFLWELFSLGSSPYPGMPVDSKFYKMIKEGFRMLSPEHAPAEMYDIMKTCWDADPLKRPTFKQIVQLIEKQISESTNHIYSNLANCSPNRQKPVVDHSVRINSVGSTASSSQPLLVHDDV
Chain of unphosphorylated PDGFRβ kinase (uPDGFRβ, Seq. ID No. 3) (P09619 557-1106): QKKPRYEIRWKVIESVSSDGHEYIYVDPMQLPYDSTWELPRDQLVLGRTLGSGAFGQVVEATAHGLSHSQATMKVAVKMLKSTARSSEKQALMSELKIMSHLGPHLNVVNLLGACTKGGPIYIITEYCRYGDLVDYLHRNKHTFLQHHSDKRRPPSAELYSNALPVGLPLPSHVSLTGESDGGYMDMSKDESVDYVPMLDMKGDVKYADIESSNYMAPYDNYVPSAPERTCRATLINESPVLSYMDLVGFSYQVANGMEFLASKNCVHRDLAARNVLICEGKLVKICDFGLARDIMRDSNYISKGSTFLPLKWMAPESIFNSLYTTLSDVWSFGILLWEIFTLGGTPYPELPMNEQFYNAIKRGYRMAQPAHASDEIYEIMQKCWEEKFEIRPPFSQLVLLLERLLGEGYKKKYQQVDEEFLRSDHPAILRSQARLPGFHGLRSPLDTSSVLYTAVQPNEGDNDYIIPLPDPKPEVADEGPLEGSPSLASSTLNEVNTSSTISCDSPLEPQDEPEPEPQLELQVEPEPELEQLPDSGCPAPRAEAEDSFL
Method for M-NFS-60 cells: M-NFS-6 Cell Proliferation Assay
A serial dilution of test compound was dispensed into a 384-well black clear bottom plate (Corning, Corning, N.Y.). Two thousand five hundred cells were added per well in 50 μL complete growth medium. […] IC50 values were calculated from a series of percent inhibition values determined at a range of inhibitor concentrations using software routines as implemented in the GraphPad Prism software package.

Turning to `Cn1cc(-c2cc(Oc3ccc(NC(=O)NC(=O)[C@H]4C[C@](C)(F)C4)nc3)ccn2)cn1` [Example 1, trans-3-fluoro-3-methyl-N-((5-((2-(1-methyl-1H-pyrazol-4-yl)pyridin-4-yl)oxy)pyridin-2-yl)carbamoyl)cyclobutanecarboxamide], the IC50 with osteoclast precursors is below 10 nM; in the assay on M-NFS-60 cells, below 10 nM; in assay [1] it was below 10 nM; in assay [2], below 10 nM; in assay [3] (setting [5]) it was 10 to 100 nM.
As to `Cn1cc(-c2cc(Oc3ccc(NC(=O)NC(=O)C4CC(C)(C)C4)nc3)ccn2)cn1` [Example 2, 3,3-dimethyl-N-((5-((2-(1-methyl-1H-pyrazol-4-yl)pyridin-4-yl)oxy)pyridin-2-yl)carbamoyl)cyclobutanecarboxamide], the IC50 was below 10 nM in the assay with osteoclast precursors; below 10 nM in the assay on M-NFS-60 cells; below 10 nM in assay [1]; below 10 nM in assay [2]; below 10 nM in assay [4] (setting [6]); 10 to 100 nM in assay [3] (setting [5]).
With `Cn1cc(-c2cc(Oc3ccc(NC(=O)NC(=O)CCC4(C(F)(F)F)CC4)nc3)ccn2)cn1` [Example 3, N-((5-((2-(1-methyl-1H-pyrazol-4-yl)pyridin-4-yl)oxy)pyridin-2-yl)carbamoyl)-3-(1-(trifluoromethyl)cyclopropyl)propanamide], the IC50 (in the assay with osteoclast precursors; with M-NFS-60 cells; in assay [1]; in assay [2]; in assay [4] (setting [6]); in assay [3] (setting [5])) was below 10 nM in each case.
In the case of `Cc1ccc(-c2cc(Oc3ccc(NC(=O)NC(=O)C(C)(C)C)nc3C)ccn2)cn1` [Example 39, N-((6-methyl-5-((6′-methyl-[2,3′-bipyridin]-4-yl)oxy)pyridin-2-yl)carbamoyl)pivalamide], the IC50 (in the assay on osteoclast precursors; in assay [1]) was 10 to 100 nM throughout.
On to `Cc1nc(NC(=O)NC(=O)CC(C)(C)C(F)(F)F)ccc1Oc1ccnc(-c2cnn(C)c2)c1` [Example 47, 4,4,4-trifluoro-3,3-dimethyl-N-((6-methyl-5-((2-(1-methyl-1H-pyrazol-4-yl)pyridin-4-yl)oxy)pyridin-2-yl)carbamoyl)butanamide], for which the IC50 (in the assay on osteoclast precursors; in assay [1]) was 10 to 100 nM in each case.
`Cn1cc(-c2cc(Oc3ccc(NC(=O)NC(=O)CC(C)(C)C(F)(F)F)nc3)ccn2)cn1` [Example 48, 4,4,4-trifluoro-3,3-dimethyl-N-((5-((2-(1-methyl-1H-pyrazol-4-yl)pyridin-4-yl)oxy)pyridin-2-yl)carbamoyl)butanamide]: the IC50 was 10 to 100 nM in the assay with osteoclast precursors; 10 to 100 nM in the assay on M-NFS-60 cells; below 10 nM in assay [1]; below 10 nM in assay [2]; below 10 nM in assay [4] (setting [6]).
For `Cn1cc(-c2cc(Oc3ccc(NC(=O)NC(=O)C4(C)CC4)nc3)ccn2)cn1` [Example 52, 1-methyl-N-((5-((2-(1-methyl-1H-pyrazol-4-yl)pyridin-4-yl)oxy)pyridin-2-yl)carbamoyl)cyclopropanecarboxamide], the IC50 is below 10 nM in the assay with osteoclast precursors, below 10 nM in assay [1], 100 to 1000 nM in assay [4] (setting [6]) and above 1000 nM in assay [3] (setting [5]).
As for `COC(C)(C)C(=O)NC(=O)Nc1ccc(Oc2ccnc(-c3cnn(C)c3)c2)cn1` [Example 55, 2-methoxy-2-methyl-N-((5-((2-(1-methyl-1H-pyrazol-4-yl)pyridin-4-yl)oxy)pyridin-2-yl)carbamoyl)propanamide], the IC50 in the assay on osteoclast precursors was below 10 nM; in assay [1], 10 to 100 nM.
Consider `Cc1cc(-c2cc(Oc3ccc(NC(=O)NC(=O)C(C)(C)C)nc3C)ccn2)ccn1` [Example 56, N-((6-methyl-5-((2′-methyl-[2,4′-bipyridin]-4-yl)oxy)pyridin-2-yl)carbamoyl)pivalamide], for which the IC50 in the assay on osteoclast precursors is 10 to 100 nM; in assay [1] it was below 10 nM; in assay [4] (IC50 (nM) uKIT, Table 3), 3100 nM; in assay [4] (setting [6]), above 1000 nM; in assay [3] (IC50 (nM) uPDGFRβ, Table 3) it was 2800 nM; in assay [3] (setting [5]) it was above 1000 nM.
For `Cc1cc(-c2cc(Oc3ccc(NC(=O)NC(=O)C(C)(C)C)nc3C)ccn2)on1` [Example 76, N-((6-methyl-5-((2-(3-methylisoxazol-5-yl)pyridin-4-yl)oxy)pyridin-2-yl)carbamoyl)pivalamide], the IC50 was 10 to 100 nM in the assay on osteoclast precursors, below 10 nM in assay [1], above 1000 nM in assay [4] (setting [6]) and above 1000 nM in assay [3] (setting [5]).
For `Cc1cc(-c2cc(Oc3ccc(NC(=O)NC(=O)C(C)C)nc3C)ccn2)ccn1` [Example 79, N-((6-methyl-5-((2′-methyl-[2,4′-bipyridin]-4-yl)oxy)pyridin-2-yl)carbamoyl)isobutyramide], the IC50 (in the assay on osteoclast precursors; in assay [1]) was below 10 nM throughout.
Regarding `COC1(C(=O)NC(=O)Nc2ccc(Oc3ccnc(-c4cnc(C)s4)c3)cn2)CCCC1` [Example 149, 1-methoxy-N-((5-((2-(2-methylthiazol-5-yl)pyridin-4-yl)oxy)pyridin-2-yl)carbamoyl)cyclopentanecarboxamide], the IC50 in the assay on osteoclast precursors is 10 to 100 nM; in the assay on M-NFS-60 cells it was 10 to 100 nM; in assay [2] it was below 10 nM; in assay [4] (setting [6]) it was 100 to 1000 nM; in assay [3] (setting [5]) it was 100 to 1000 nM.
As for `COC1(C(=O)NC(=O)Nc2ccc(Oc3ccnc(-c4cnc(C)s4)c3)cn2)CC1` [Example 155, 1-methoxy-N-((5-((2-(2-methylthiazol-5-yl)pyridin-4-yl)oxy)pyridin-2-yl)carbamoyl)cyclopropanecarboxamide], the IC50 was 10 to 100 nM with osteoclast precursors; 10 to 100 nM in the assay on M-NFS-60 cells; below 10 nM in assay [2]; 100 to 1000 nM in assay [4] (setting [6]); above 1000 nM in assay [3] (setting [5]).
As to `Cc1ncc(-c2cc(Oc3ccc(NC(=O)NC(=O)C4CCOCC4)nc3)ccn2)s1` [Example 156, N-((5-((2-(2-methylthiazol-5-yl)pyridin-4-yl)oxy)pyridin-2-yl)carbamoyl)tetrahydro-2H-pyran-4-carboxamide], the IC50 is 10 to 100 nM in the assay with osteoclast precursors; 100 to 1000 nM with M-NFS-60 cells; 10 to 100 nM in assay [2]; 100 to 1000 nM in assay [4] (setting [6]); above 1000 nM in assay [3] (setting [5]).
`Cc1cn(-c2cc(Oc3ccc(NC(=O)NC(=O)C4(C)CCOCC4)nc3)ccn2)cn1` [Example 157, 4-methyl-N-((5-((2-(4-methyl-1H-imidazol-1-yl)pyridin-4-yl)oxy)pyridin-2-yl)carbamoyl)tetrahydro-2H-pyran-4-carboxamide]: the IC50 is 10 to 100 nM in the assay on osteoclast precursors; 100 to 1000 nM with M-NFS-60 cells; 10 to 100 nM in assay [2]; 100 to 1000 nM in assay [4] (setting [6]); 100 to 1000 nM in assay [3] (setting [5]).
For `COC1(C(=O)NC(=O)Nc2cc(C)c(Oc3ccnc(-n4cnc(C)c4)c3)cn2)CCCC1` [Example 162, 1-methoxy-N-((4-methyl-5-((2-(4-methyl-1H-imidazol-1-yl)pyridin-4-yl)oxy)pyridin-2-yl)carbamoyl)cyclopentanecarboxamide], the IC50 with osteoclast precursors is 10 to 100 nM; with M-NFS-60 cells, below 10 nM; in assay [2] it was below 10 nM; in assay [4] (setting [6]) it was 10 to 100 nM; in assay [3] (setting [5]), 100 to 1000 nM.
Take `Cc1ncc(-c2cc(Oc3ccc(NC(=O)NC(=O)C4(C)CCOCC4)nc3)ccn2)o1` [Example 163, 4-methyl-N-((5-((2-(2-methyloxazol-5-yl)pyridin-4-yl)oxy)pyridin-2-yl)carbamoyl)tetrahydro-2H-pyran-4-carboxamide]: the IC50 in the assay on osteoclast precursors was 10 to 100 nM; in the assay on M-NFS-60 cells, 10 to 100 nM; in assay [2] it was 10 to 100 nM; in assay [4] (setting [6]) it was 100 to 1000 nM; in assay [3] (setting [5]), above 1000 nM.
For the molecule `COC1(C(=O)NC(=O)Nc2ccc(Oc3ccnc(-c4cc(C)no4)c3)c(C)n2)CCCC1` [Example 166, 1-methoxy-N-((6-methyl-5-((2-(3-methylisoxazol-5-yl)pyridin-4-yl)oxy)pyridin-2-yl)carbamoyl)cyclopentanecarboxamide], the IC50 is 10 to 100 nM in the assay on osteoclast precursors; 10 to 100 nM with M-NFS-60 cells; below 10 nM in assay [2]; 100 to 1000 nM in assay [4] (setting [6]); 100 to 1000 nM in assay [3] (setting [5]).
With `COC1(C(=O)NC(=O)Nc2ccc(Oc3ccnc(-c4ccnc(C)c4)c3)cn2)CCCC1` [Example 168, 1-methoxy-N-((5-((2′-methyl-[2,4′-bipyridin]-4-yl)oxy)pyridin-2-yl)carbamoyl)cyclopentanecarboxamide], the IC50 is 10 to 100 nM in the assay with osteoclast precursors; 10 to 100 nM with M-NFS-60 cells; below 10 nM in assay [2]; 100 to 1000 nM in assay [4] (setting [6]); 100 to 1000 nM in assay [3] (setting [5]).
